Assay results as given in patent publication US20110294803A1, “PHOSPHATIDYLINOSITOL-3-KINASE P110 DELTA-TARGETED DRUGS IN THE TREATMENT OF CNS DISORDERS” (priority 2008, published 2011).
“Also recorded” adds a separate entry of the source.

What was measured:
ErbB3 mRNA = ErbB3 mRNA expression in hippocampus of rats treated chronically with haloperidol; format: in vivo, rat; conditions: haloperidol 0.08 or 0.6 mg/kg/day i.p. once daily for 28 days
Protocol: (§1) To explore this hypothesis, rats treated chronically with haloperidol, a standard antipsychotic drug, were tested for PIK3CD expression in the brain. Male Sprague-Dawley rats (weight 250 g) were on a 12-h light/dark cycle (lights on/off 0600 hours/1800 hours) in a temperature-controlled environment and with access to food and water. Rats were randomly assigned to drug treatment groups (8 per dose) and administered intraperitoneal injections of haloperidol (0.08 or 0.6 mg/kg/day) or vehicle (0.02% lactic acid) once daily for 28 days. Haloperidol (20 mg/ml) was prepared in 1% lactic acid, diluted with water, and neutralized with 1M NaOH to obtain pH 5.3. Rats were euthanized 7 h after the last injection. Brains were dissected and frozen at −80° C. PIK3CD, PIK3R3, ErbB4, and ErbB3 mRNA expression was determined in rat hippocampus using methods described above. Association of mRNA expression with haloperidol treatment was analyzed by ANOVA.

PIK3CD mRNA = PIK3CD mRNA expression in hippocampus of rats treated chronically with haloperidol; format: in vivo, rat; conditions: haloperidol 0.08 or 0.6 mg/kg/day i.p. once daily for 28 days, compared to untreated rats; F(2,22)=9.45, p=0.001
Protocol: as §1

ErbB4 mRNA = ErbB4 mRNA expression in hippocampus of rats treated chronically with haloperidol; format: in vivo, rat; conditions: haloperidol 0.08 or 0.6 mg/kg/day i.p. once daily for 28 days
Protocol: as §1

PIK3R3 mRNA = PIK3R3 mRNA expression in hippocampus of rats treated chronically with haloperidol; format: in vivo, rat; conditions: haloperidol 0.08 or 0.6 mg/kg/day i.p. once daily for 28 days
Protocol: as §1

C57BL/6J mice [1] = experiment: Amphetamine-induced locomotor activity in open field, normal mice; format: in vivo, mouse; conditions: IC87114 0.1 mg/kg i.p. pretreatment; D-amphetamine 0.75 or 1.5 mg/kg i.p.; male C57BL/6J mice
Protocol: (§2) Subjects. C57BL/6J mice were purchased from The Jackson Laboratory at 8 weeks old. All mice were group-housed (4/cage) in a climate-controlled animal facility (22±2° C.) and maintained on a 12-hr light/dark cycle, with free access to food and water. Testing was conducted in male mice, at ages 2-3 months, during the light phase of the circadian cycle. Mice were handled by the experimenter on alternate days during the week preceding the tests. At least one hour before any test manipulation, mice were habituated in a room adjacent to the testing room.
On day 3, mice were tested in the same experimental apparatus and conditions as on day 1. […] During the first 10-minute session mice were placed in the same empty open field as day 1. Immediately after, mice were removed from the field and given an injection of D-amphetamine sulphate (either 0.75 mg/kg or 1.5 mg/kg, i.p., Sigma-Aldrich, St. Louis, Mo., USA). They were then placed back in the same open field and allowed to explore for an additional 75 minutes. Amphetamine was dissolved in physiological saline and injected in a volume of 10 ml/kg.
Statistical analysis. Results were expressed as mean±standard error of the mean (S.E.M.) throughout. Student T-test, Two- or Three-Way analysis of variance (ANOVA) was used. Post-hoc analyses for individual group comparisons employed Newman-Keuls analyses.

[2] = tested on: COMT*dysbindin double knockout mice; experiment: Amphetamine-induced stereotypy in a genetic mouse model of schizophrenia; format: in vivo; conditions: IC87114 0.1 mg/kg i.p. pretreatment, D-amphetamine 1.5 mg/kg i.p.
From the text: Subjects. All procedures were approved by the NIMH Animal Care and Use Committee and followed the NIH Guidelines “Using Animals in Intramural Research.” To derive the double knockout mice, the lines of COMT knockout mice and dysbindin knockout mice previously described were used. COMT*dysbindin double knockout mice (COMT−/− dys−/−) were littermates and bred by double heterozygote mating (dCOMT+/−dys+/− with cCOMT+/−dys+/−). Mice were identified by PCR analysis of tail DNA. Mice were group-housed (2-4/cage) in a climate-controlled animal facility (22±2° C.) and maintained on a 12-hr light/dark cycle, with free access to food and water. Testing was conducted in male mice, 7 months old, during the light phase. Experimenters were blind to the genotype during behavioral testing. Mice were handled by the experimenter on alternate days during the week preceding the tests. At least one hour before any test manipulation, mice were habituated in a room adjacent to the testing room.
Stereotypy behavior with IC87114 and Amphetamine Treatment. […] Stereotypy was scored from videotapes by an observer blind to the treatments and genotype conditions of each mouse. […]
Statistical analysis. Results were expressed as mean±standard error of the mean (S.E.M.) throughout. […]

[3] = Passive blood-brain barrier permeability analysis by partitioning (Analiza); format: physicochemical
Protocol: For compounds to be clinically useful to treat CNS disorders, they should penetrate the blood-brain barrier (BBB). […] The degree of BBB penetration is measured as the ratio of the steady-state concentrations of the drug in the brain and in the blood, expressed as log(Cbrain/Cblood) or log BB. Compounds with logBB>0.3 (i.e. Cbrain/Cblood>2.0) cross the BBB readily. From these studies, IC87114 represents one of these compounds.
BBB analysis was performed using Analiza assays: Based upon a method described previously, a combination of two descriptors representing the lipophilicity (as measured by octanol-buffer partitioning, logD7.4) and relative hydrophobicity (as measured by aqueous two-phase partitioning (ATPPS), N(CH2)) of organic compounds was used to determine if that compound will permeate the blood-brain barrier.
Sample Preparation: One sample was received as 10 mM stock solutions in Dimethyl sulfoxide (DMSO) frozen on dry ice in a microtube. […]
Partitioning Experiments: Partitioning in an aqueous dextran-polyethylene glycol (Dex-PEG) two-phase system containing 0.15M NaCl in 0.01M sodium phosphate buffer at pH 7.4 was performed with an Automated Signature Workstation (Analiza, Inc. Cleveland, Ohio). […] Relative Hydrophobicity (N(CH2)) is then calculated from this partition coefficient. […] Relative Hydrophobicity (N(CH2) is then calculated from this partition coefficient. […]

[4] = tested on: Human B-lymphoblast cells (LCLs); experiment: NRG1-induced lymphocyte (LCL) migration, Transwell assay; format: cell-based; conditions: 0.1 uM, 60 min preincubation; LCLs of normal individuals and patients with schizophrenia; NRG-1 200 ng/ml, 4 hours
Protocol: The cellular phenotype is migration of lymphocytes to the chemoattractant, Neuregulin (NRG1), a key regulator of brain development. NRG1 induced LCL migration is diminished in patients with schizophrenia.
Human B-lymphoblast cells were cultured in RPMI 1640 without L-Glutamine medium (Quality Biological, Inc.) supplemented with 15% fetal bovine serum (FBS), 1% Penicillin-streptomycin, and 2% L-Glutamine in a 5% CO2 incubator at 37° C. Prior to performing migration assay, cells were incubated for 16-18 hours in the same culture, lowering the concentration of FBS to 2%. […] Following incubations, cells were seeded into the top chamber of the HTS […] Transwell®-96 Cell Migration plate (Corning) at 4×10^5 cell/well concentration in a 50 μl volume. NRG-1 serum free RPMI solution with antibiotics and L-Glutamine supplements (NRG-1 200 ng/ml; 160 μl) was added to the bottom chamber and incubated for 4 hours at 37° C. 75 μl of the bottom chamber fraction was collected and combined with 25 μl of cyquant/lysis buffer reagent (according to Invitrogen protocol) for 15 min at RT and in the dark, and then read with a Wallac 1420 VICTOR3 multilabel plate reader under standard fluorescein (485 nm/535 nm, 1.0 s) protocol.

C57BL/6J mice [5] = experiment: Baseline locomotor activity in open field; format: in vivo, mouse; conditions: IC87114 0.1 mg/kg i.p., male C57BL/6J mice, no amphetamine
Protocol: as §2
Mice were tested on day 1 in an experimental apparatus consisting of four Plexiglas Digiscan automated open fields (Accuscan; 42×42×30 cm dimensions). One red light (5±2 lux) was placed overhead, evenly illuminating each open field. Each apparatus contained photobeam sensors to measure the exploratory and locomotor activity of the mice. During the first 10-minute session, mice were placed in the empty open field and allowed to explore the arena. […] They were then place back in the same open field for an additional 75 minutes. All sessions were videotaped. […] “Vehicle-treated” mice were injected with the same volume of 0.25% DMSO in saline physiological saline.
Statistical analysis. Results were expressed as mean±standard error of the mean (S.E.M.) throughout. Student T-test, Two- or Three-Way analysis of variance (ANOVA) was used. […]

Compound | ErbB3 mRNA expression in rat hippocampus (ErbB3 mRNA) | expression of PIK3CD mRNA in rat hippocampus (PIK3CD mRNA) | ErbB4 mRNA expression in rat hippocampus (ErbB4 mRNA) | PIK3R3 mRNA expression in rat hippocampus (PIK3R3 mRNA) | amphetamine-induced hyperlocomotion (distance traveled during 75 minutes) (C57BL/6J mice [1]) | amphetamine-induced stereotypy [2] | logBB (log(Cbrain/Cblood)) ([3]; calculated from partitioning data) | Kp ([3]; not told, calculated from log D (octanol-buffer, pH 7.4) and N(CH2) (aqueous two-phase partitioning), read-out: Cbrain/Cblood) | LCL migration in response to NRG-1 stimulation [4] | baseline locomotor activity (distance traveled during 75 minutes) (C57BL/6J mice [5])
O=C(CCCN1CCC(O)(c2ccc(Cl)cc2)CC1)c1ccc(F)cc1 [haloperidol] | did not affect | decreases expression of PIK3CD mRNA | did not affect | did not affect | – | – | – | – | – | –
Cc1ccccc1-n1c(Cn2cnc3c(N)ncnc32)nc2cccc(C)c2c1=O [IC87114] | – | – | – | – | reduces amphetamine-induced hyperlocomotion; also recorded: reduces amphetamine induced locomotor abnormalities; also recorded: blocked the amphetamine-induced increase in locomotor activity | dramatically reduces amphetamine-induced stereotypy; also recorded: diminished | > 0.3 | > 2 | Rescues a Cellular Phenotype Related to Schizophrenia; also recorded: significantly improve LCL migration | no effect on baseline locomotor activity; also recorded: without affecting baseline behavior; also recorded: did not show any drug-treatment effect
